Results from ChEMBL document CHEMBL5625196, “Cell-active, irreversible covalent inhibitors that selectively target the catalytic lysine of EGFR by using fluorosulfate-based SuFEx chemistry” (Eur J Med Chem, 2023).

Columns and labels:
[1] = physchem; conditions: PBS
[2] = physchem; conditions: cell-culture medium
[3] = AUC (0 to t) in Sprague-Dawley rat at 2 mg/kg, iv measured after 24 hrs by LC-MS/MS analysis; assay type: ADME, organism-based; conditions: in vivo
[4] = AUC (0 to infinity) in Sprague-Dawley rat at 2 mg/kg, iv measured after 24 hrs by LC-MS/MS analysis; assay type: ADME, organism-based; conditions: in vivo
[5] = Half-life in Sprague-Dawley rat at 2 mg/kg, iv measured after 24 hrs by LC-MS/MS analysis; assay type: ADME, organism-based; conditions: in vivo
[6] = Apparent volume of distribution in Sprague-Dawley rat at 2 mg/kg, iv measured after 24 hrs by LC-MS/MS analysis; assay type: ADME, organism-based; conditions: in vivo, read-out: Vz
[7] = Clearance in Sprague-Dawley rat at 2 mg/kg, iv measured after 24 hrs by LC-MS/MS analysis; assay type: ADME, organism-based; conditions: in vivo
[8] = Volume of distribution at steady state in Sprague-Dawley rat at 2 mg/kg, iv measured after 24 hrs by LC-MS/MS analysis; assay type: ADME, organism-based; conditions: in vivo, read-out: Vdss
[9] = MRT in Sprague-Dawley rat at 2 mg/kg, iv measured after 24 hrs by LC-MS/MS analysis; assay type: ADME, organism-based; conditions: in vivo
[10] = AUC (0 to t) in Sprague-Dawley rat at 5 mg/kg, po measured after 24 hrs by LC-MS/MS analysis; assay type: ADME, organism-based; conditions: in vivo
[11] = AUC (0 to infinity) in Sprague-Dawley rat at 5 mg/kg, po measured after 24 hrs by LC-MS/MS analysis; assay type: ADME, organism-based; conditions: in vivo
[12] = Half-life in Sprague-Dawley rat at 5 mg/kg, po measured after 24 hrs by LC-MS/MS analysis; assay type: ADME, organism-based; conditions: in vivo
[13] = MRT in Sprague-Dawley rat at 5 mg/kg, po measured after 24 hrs by LC-MS/MS analysis; assay type: ADME, organism-based; conditions: in vivo
[14] = Tmax in Sprague-Dawley rat at 5 mg/kg, po measured after 24 hrs by LC-MS/MS analysis; assay type: ADME, organism-based; conditions: in vivo
[15] = Cmax in Sprague-Dawley rat at 5 mg/kg, po measured after 24 hrs by LC-MS/MS analysis; assay type: ADME, organism-based; conditions: in vivo
[16] = Oral bioavailability in Sprague-Dawley rat at 5 mg/kg measured after 24 hrs by LC-MS/MS analysis; assay type: ADME, organism-based; conditions: in vivo
[17] = in vitro; conditions: mouse, mouse liver microsomes
[18] = in vitro; conditions: dog, MDCK-MDR1
[19] = in vitro; conditions: dog, MDCK-MDR1; remark: listed apart in the source
[20] = in vitro; conditions: dog, MDCK-MDR1; remark: listed apart in the source
[21] = in vitro; conditions: dog, MDCK-MDR1; remark: listed apart in the source
[22] = physchem; conditions: PBS; remark: listed apart in the source
[23] = physchem; conditions: PBS; remark: listed apart in the source
[24] = dog, mdck-mdr1, 10 µM

Q: With `C=CS(=O)(=O)Nc1cccc(Nc2ncnc3cc(OCCOC)c(OCCOC)cc23)c1` as the molecule, how does the half-life [1] read?
A: > 1440 min

Q: What about the half-life [2] of the same molecule?
A: > 1440 min

Q: For `COCCOc1cc2ncnc(Nc3cccc(OS(=O)(=O)F)c3)c2cc1OCCOC`, which AUC(0-t) at 24 h [3] is on record?
A: 1920 ng·h/mL

Q: And the AUC(0-inf) [4]?
A: 1920 ng·h/mL

Q: What about the half-life [5] of the same molecule?
A: 55.8 min

Q: What about the Vd [6] of the same molecule?
A: 1.4 L/kg

Q: What about the clearance [7] of the same molecule?
A: 17.4 mL/min/kg

Q: What about the Vd [8] of the same molecule?
A: 1.22 L/kg

Q: What about the MRT [9] of the same molecule?
A: 1.16 h

Q: And the AUC(0-t) at 24 h [10]?
A: 1530 ng·h/mL

Q: What about the AUC(0-inf) [11] of the same molecule?
A: 1540 ng·h/mL

Q: What about the half-life [12] of the same molecule?
A: 48.6 min

Q: What about the MRT [13] of the same molecule?
A: 2.48 h

Q: And the Tmax [14]?
A: 2.33 h

Q: And the Cmax [15]?
A: 444 ng/mL

Q: And the bioavailability [16]?
A: 32%

Q: What about the half-life at 1 h [17] of the same molecule?
A: 29.6 min

Q: What about the recovery at 10 µM [18] of the same molecule?
A: 86.8%

Q: What about the recovery at 10 µM [19] of the same molecule?
A: 81.2%

Q: And the Papp A→B at 10 µM [20]?
A: 1.9 ×10⁻⁶ cm/s

Q: And the Papp B→A at 10 µM [21]?
A: 3.92 ×10⁻⁶ cm/s

Q: What about the half-life [1] of the same molecule?
A: > 480 min

Q: And the half-life [22]?
A: > 480 min

Q: And the half-life [2]?
A: 1440 min

Q: What about the half-life [23] of the same molecule?
A: > 720 min

Q: With `C[C@H]1O[C@@H](O[C@H]2[C@@H](O)C[C@H](O[C@H]3[C@@H](O)C[C@H](O[C@H]4CC[C@@]5(C)[C@H](CC[C@@H]6[C@@H]5C[C@@H](O)[C@]5(C)[C@@H](C7=CC(=O)OC7)CC[C@]65O)C4)O[C@@H]3C)O[C@@H]2C)C[C@H](O)[C@@H]1O` [DIGOXIN] as the molecule, how does the Papp [24] read?
A: 6.41 10^-6 cm/s

Q: And the recovery at 10 µM [18]?
A: 105%

Q: What about the recovery at 10 µM [19] of the same molecule?
A: 97.9%

Q: What about the Papp B→A at 10 µM [21] of the same molecule?
A: 18.5 ×10⁻⁶ cm/s
